Each molecule was assayed on Acinetobacter baumannii ATCC 17978 (assay: Minimal inhibitory concentration (MIC) determination, broth microdilution (CLSI M07-A10)). Conditions: ATCC17978, lowest concentration for complete growth inhibition, 18-24 hours at 35±2° C., read-out: ATCC 17978 MIC.
Assay type: cell-based
Protocol: Minimal Inhibitory Concentration (MIC) and MIC90 Determination:
The MIC of antibacterial compounds against multiple species and strains was determined using the broth microdilution method according to M07-A10 Clinical and Laboratory Standards Institute (CLSI) guidelines (CLSI (2015) Methods for dilution antimicrobial susceptibility tests for bacteria that grow aerobically; Approved Standard, Tenth Edition. CLSI Document M7-A10 (ISBN 1-56238-987-4). Wayne, Pa.: Clinical and Laboratory Standards Institute, 19087, USA), using the appropriate broth medium. In short, the compound plates were prepared by dispensing 100 μl of each stock solution in the first well of a 96 well microtiter plate (MTP) at a concentration 100-fold higher than the final concentration desired in broth. Eleven serial 2-fold dilutions of the highest concentration were made in DMSO for new compounds and in water (or appropriate solution) for reference compounds (CLSI (2017) Performance Standards for Antimicrobial Susceptibility Testing; […] Informational Supplement. CLSI Document M100-S27, CLSI, Wayne, Pa. 19087, USA). 1 μL of each well was transferred in a new MTP, which served as the test plate by subsequent inoculation. This bacterial suspension was prepared from strains that were first sub-cultured on agar plates and incubated for 18-24 hours as appropriate. Following incubation, the inoculum was prepared from isolated colonies and adjusted to 0.5 McFarland turbidity standard (1 to 2×10^8 Colony Forming Units (CFU)/mL) in 0.9% saline. The bacterial suspension was then diluted 1:200 in appropriate sterile medium and within 15 minutes 100 μL/well were dispensed. Negative controls (lack of bacterial cells) and growth control wells (lack of compound) were included in all plates. MTPs were incubated for 18-24 hours at 35±2° C. in ambient air. The MIC value of each compound, expressed as μg/mL, was determined as the lowest concentration required for complete growth inhibition (no visible growth). MIC90 and MIC50 values were defined as the lowest concentration of the antibacterial compound at which 90% and 50% of the strains were inhibited.
Table 3 provides the MIC's of particular compounds of the present invention obtained against the strain Acinetobacter baumannii ATCC 17978, expressed as μg/mL.

Compound	MIC [µg/mL]
CCc1cc(Nc2nccn3c(-c4ccc(OC(F)F)c(F)c4F)cnc23)ccc1C(=O)N1CCC(C(=O)N2C[C@@H]3C[C@H]2C[N+]3(C)CC2CNC2)CC1.O=C([O-])C(F)(F)F.O=CO (mixture of isomers) [Example 100, [4-[[3-[4-(Difluoromethoxy)-2,3-difluoro-phenyl]imidazo[1,2-a]pyrazin-8-yl]amino]-2-ethyl-phenyl]-[4-[rac-(1S,4S)-5-(azetidin-3-ylmethyl)-5-methyl-2-aza-5-azoniabicyclo[2.2.1]heptane-2-carbonyl]-1-piperidyl]methanone; formic acid; 2,2,2-trifluoroacetate (Mixed Salt)]	1.84
CCc1cc(Nc2nccn3c(-c4ccc(OC(F)F)c(F)c4F)cnc23)ccc1C(=O)N1CCC(C(=O)NCC2CC[N+](C)(CC3CNC3)C2)CC1.O=C([O-])C(F)(F)F.O=CO (stereo not shown) [Example 98, N-[[1-(Azetidin-3-ylmethyl)-1-methyl-pyrrolidin-1-ium-3-yl]methyl]-1-[4-[[3-[4-(difluoromethoxy)-2,3-difluoro-phenyl]imidazo[1,2-a]pyrazin-8-yl]amino]-2-ethyl-benzoyl]piperidine-4-carboxamide formate/2,2,2-trifluoroacetate (Mixed Salt)]	0.92
CCc1cc(Nc2nccn3c(-c4ccc(OC)c(F)c4F)cnc23)ccc1C(=O)NCC[N+]1(C)CCC(C(N)=O)C1.O=C([O-])C(F)(F)F (stereo not shown) [Example 144, 1-[2-[[4-[[3-(2,3-Difluoro-4-methoxy-phenyl)imidazo[1,2-a]pyrazin-8-yl]amino]-2-ethyl-benzoyl]amino]ethyl]-1-methyl-pyrrolidin-1-ium-3-carboxamide 2,2,2-trifluoroacetate]	3.62
CCc1cc(Nc2nccn3c(-c4ccc(Oc5cnn(C)n5)c(F)c4F)cnc23)ccc1C(=O)NCC1CC[N+](C)(CC2CCNC2)CC1.O=C[O-] (stereo not shown) [Example 6, 4-[[3-[2,3-difluoro-4-(2-methyltriazol-4-yl)oxy-phenyl]imidazo[1,2-a]pyrazin-8-yl]amino]-2-ethyl-N-[[1-methyl-1-(pyrrolidin-3-ylmethyl)piperidin-1-ium-4-yl]methyl]benzamide Formate]	8.57
CCc1cc(Nc2nccn3c(-c4ccc(OC(F)F)c(F)c4F)cnc23)ccc1C(=O)N[C@@H](C)CNC(=O)C1CC[N+](C)(CC2CNC2)CC1.O=C[O-] (stereo partly drawn) [Example 114, 1-(Azetidin-3-ylmethyl)-N-[(2S)-2-[[4-[[3-[4-(difluoromethoxy)-2,3-difluoro-phenyl]imidazo[1,2-a]pyrazin-8-yl]amino]-2-ethyl-benzoyl]amino]propyl]-1-methyl-piperidin-1-ium-4-carboxamide Formate]	17.8
CCc1cc(Nc2nccn3c(-c4ccc(OC(F)F)c(F)c4F)cnc23)ccc1C(=O)N1CCC(C(=O)N2CC3(C2)C[N+](C)(CC2CNC2)C3)CC1.O=C([O-])C(F)(F)F.O=CO [Example 99, [4-[2-(azetidin-3-ylmethyl)-2-methyl-6-aza-2-azoniaspiro[3.3]-6-carbonyl]-1-piperidyl]-[4-[[3-[4-(difluoromethoxy)-2,3-difluoro-phenyl]imidazo[1,2-a]pyrazin-8-yl]amino]-2-ethyl-phenyl]methanone formic acid 2,2,2-trifluoroacetate (Mixed Salt)]	0.92

Same assay, conditions: ATCC17978, read-out: ATCC 17978 MIC

Compound	MIC [µg/mL]
CCc1cc(Nc2nccn3c(-c4ccc(OC(F)F)c(F)c4F)cnc23)ccc1C(=O)N1CCC(C(=O)N2CC3CC(C2)[N+]3(C)CC2CNC2)CC1.O=C(O)C(F)(F)F.O=C([O-])C(F)(F)F.O=CO (stereo not shown) [Example 101, [4-[6-(Azetidin-3-ylmethyl)-6-methyl-3-aza-6-azoniabicyclo[3.1.1]heptane-3-carbonyl]-1-piperidyl]-[4-[[3-[4-(difluoromethoxy)-2,3-difluoro-phenyl]imidazo[1,2-a]pyrazin-8-yl]amino]-2-ethyl-phenyl]methanone formate 2,2,2-trifluoroacetate (Mixed Salt)]	1.84

Reference: patent US20230141600A1, “IMIDAZOPYRAZINE DERIVATIVES” (priority 2020, published 2023)
